The values below come from PubChem BioAssay AID260 (DTP/NCI, 2004).

Several values for one entry are separate records, joined by “and”; a condition that tells them apart may be missing. Identical values can stand only once. Toxic doses and inconclusive results are not listed.

For this assay, the system named is CD2F1 mice, intracerebral L1210 leukemia, survival T/C. The experiment in a line: NCI In Vivo Anticancer Drug Screen. Data for tumor model L1210 Leukemia (intracerebral) in CD2F1 (CDF1) mice. As to conditions: higher = longer survival. On the procedure: The antitumor activity of compounds was measured in mice bearing transplantable tumors. Survival or tumor size were measured and the results are expressed as the measurement made in the treated group (T) divided by the measurement made in the vehicle treated control group (C). The tumor model used in this assay is L1210 Leukemia (intracerebral) in CD2F1 (CDF1) mice

The mark [1] stands for this setting: endpoint: median survival time, dose: 20.0 mg/kg/injection, schedule: Q01DX001 (ip), vehicle: saline.
Setting [2] is: endpoint: median survival time, dose: 40.0 mg/kg/injection, schedule: Q01DX001 (ip), vehicle: saline.
The mark [3] stands for this setting: endpoint: median survival time, dose: 80.0 mg/kg/injection, schedule: Q01DX001 (ip), vehicle: saline.
Where [4] appears, read: endpoint: median survival time, dose: 32.0 mg/kg/injection, schedule: Q01DX005 (ip), vehicle: saline.
[5] abbreviates: endpoint: median survival time, dose: 64.0 mg/kg/injection, schedule: Q01DX005 (ip), vehicle: saline.
Where [6] appears, read: endpoint: median survival time, dose: 128.0 mg/kg/injection, schedule: Q01DX005 (ip), vehicle: saline.

For the compound `CN(N=O)C(N)=O`, the T/C was 98 % of control (endpoint: median survival time, dose: 0.5 mg/kg/injection, schedule: Q01DX009 (ip), vehicle: saline + alcohol); 105 % of control (endpoint: median survival time, dose: 1.0 mg/kg/injection, schedule: Q01DX009 (ip), vehicle: saline + alcohol); 105 % of control (endpoint: median survival time, dose: 2.0 mg/kg/injection, schedule: Q01DX009 (ip), vehicle: saline + alcohol); 89 % of control (endpoint: median survival time, dose: 2.5 mg/kg/injection, schedule: Q01DX001 (ip), vehicle: saline); 114 % of control (endpoint: median survival time, dose: 4.0 mg/kg/injection, schedule: Q01DX009 (ip), vehicle: saline + alcohol); 92 % of control (endpoint: median survival time, dose: 5.0 mg/kg/injection, schedule: Q01DX001 (ip), vehicle: saline). Also, the T/C runs as follows: (endpoint: median survival time, dose: 10.0 mg/kg/injection, schedule: Q01DX001 (ip), vehicle: saline + alcohol) 102 % of control; (endpoint: median survival time, dose: 10.0 mg/kg/injection, schedule: Q01DX001 (ip), vehicle: saline) 94 % of control; (endpoint: median survival time, dose: 16.0 mg/kg/injection, schedule: Q01DX009 (ip), vehicle: saline + alcohol) 196 % of control; (endpoint: median survival time, dose: 20.0 mg/kg/injection, schedule: Q01DX001 (ip), vehicle: saline + alcohol) 105 % of control; under setting [1], 103 % of control; (endpoint: median survival time, dose: 40.0 mg/kg/injection, schedule: Q01DX001 (ip), vehicle: saline + alcohol) 107 % of control. Moreover, the T/C was 121 % of control under setting [2]; 112 % of control (endpoint: median survival time, dose: 80.0 mg/kg/injection, schedule: Q01DX001 (ip), vehicle: saline + alcohol); 110 % of control under setting [3].
With `C1CN(P2(N3CC3)=NP(N3CC3)(N3CC3)=NP(N3CC3)(N3CC3)=N2)CCO1` (stereo not drawn), the T/C was 92 % of control under setting [1], 95 % of control under setting [2] and 101 % of control under setting [3].
For `CC1CN1C(=O)NCCCCCCNC(=O)N1CC1C` (stereo not drawn), the T/C was 103 % of control (endpoint: median survival time, dose: 1.25 mg/kg/injection, schedule: Q01DX009 (ip), vehicle: Klucel (hydroxypropylcellulose) (HPC)); 102 % of control (endpoint: median survival time, dose: 2.5 mg/kg/injection, schedule: Q01DX009 (ip), vehicle: Klucel (hydroxypropylcellulose) (HPC)); 112 % of control (endpoint: median survival time, dose: 5.0 mg/kg/injection, schedule: Q01DX009 (ip), vehicle: Klucel (hydroxypropylcellulose) (HPC)); 120 % of control (endpoint: median survival time, dose: 10.0 mg/kg/injection, schedule: Q01DX009 (ip), vehicle: Klucel (hydroxypropylcellulose) (HPC)); 120 % of control (endpoint: median survival time, dose: 20.0 mg/kg/injection, schedule: Q01DX009 (ip), vehicle: Klucel (hydroxypropylcellulose) (HPC)).
Regarding `Cc1cn(C2CC(O)C(CO)O2)c(=O)[nH]c1=O` (stereo not drawn), the T/C is 104 % of control (endpoint: median survival time, dose: 100.0 mg/kg/injection, schedule: Q01DX009 (ip), vehicle: saline with Tween-80); 100 % of control and 103 % of control (endpoint: median survival time, dose: 100.0 mg/kg/injection, schedule: Q01DX009 (ip), vehicle: saline); 107 % of control (endpoint: median survival time, dose: 200.0 mg/kg/injection, schedule: Q01DX009 (ip), vehicle: saline with Tween-80); 98 % of control and 100 % of control (endpoint: median survival time, dose: 200.0 mg/kg/injection, schedule: Q01DX009 (ip), vehicle: saline); 109 % of control (endpoint: median survival time, dose: 400.0 mg/kg/injection, schedule: Q01DX009 (ip), vehicle: saline with Tween-80); 101 % of control (endpoint: median survival time, dose: 400.0 mg/kg/injection, schedule: Q01DX009 (ip), vehicle: saline). Further, the T/C was 114 % of control (endpoint: median survival time, dose: 800.0 mg/kg/injection, schedule: Q01DX009 (ip), vehicle: saline with Tween-80); 103 % of control and 113 % of control (endpoint: median survival time, dose: 800.0 mg/kg/injection, schedule: Q01DX009 (ip), vehicle: saline); 106 % of control (endpoint: median survival time, dose: 1600.0 mg/kg/injection, schedule: Q01DX009 (ip), vehicle: saline with Tween-80).
Turning to `N#[N+]c1nc[nH]c1C(N)=O`, the T/C was 112 % of control (endpoint: median survival time, dose: 2.0 mg/kg/injection, schedule: Q01DX005 (ip), vehicle: saline); 105 % of control (endpoint: median survival time, dose: 4.0 mg/kg/injection, schedule: Q01DX005 (ip), vehicle: saline); 107 % of control (endpoint: median survival time, dose: 8.0 mg/kg/injection, schedule: Q01DX005 (ip), vehicle: saline); 105 % of control (endpoint: median survival time, dose: 16.0 mg/kg/injection, schedule: Q01DX005 (ip), vehicle: saline); 105 % of control under setting [4]; 101 % of control under setting [5].
Regarding `COc1ccc(CC2C(=O)NC(C)C(=O)N(C)C3C(=O)N(C)C(Cc4ccc(O)c(c4)Oc4ccc(cc4)C3O)C(=O)NC(C)C(=O)NC(C)C(=O)N2C)cc1` (stereo not drawn), the T/C reads like this: (endpoint: median survival time, dose: 0.12 mg/kg/injection, schedule: Q01DX009 (ip), vehicle: Klucel (hydroxypropylcellulose) (HPC)) 101 % of control; (endpoint: median survival time, dose: 0.13 mg/kg/injection, schedule: Q01DX009 (ip), vehicle: saline) 93 % of control and 117 % of control; (endpoint: median survival time, dose: 0.25 mg/kg/injection, schedule: Q01DX009 (ip), vehicle: Klucel (hydroxypropylcellulose) (HPC)) 93 % of control and 101 % of control; (endpoint: median survival time, dose: 0.25 mg/kg/injection, schedule: Q01DX009 (ip), vehicle: saline) 124 % of control and 91 % of control; (endpoint: median survival time, dose: 0.5 mg/kg/injection, schedule: Q01DX009 (ip), vehicle: Klucel (hydroxypropylcellulose) (HPC)) 98 % of control and 100 % of control; (endpoint: median survival time, dose: 0.5 mg/kg/injection, schedule: Q01DX009 (ip), vehicle: saline) 124 % of control and 111 % of control. The T/C runs as follows: (endpoint: median survival time, dose: 1.0 mg/kg/injection, schedule: Q01DX009 (ip), vehicle: Klucel (hydroxypropylcellulose) (HPC)) 97 % of control and 100 % of control; (endpoint: median survival time, dose: 1.0 mg/kg/injection, schedule: Q01DX009 (ip), vehicle: saline) 104 % of control and 107 % of control; (endpoint: median survival time, dose: 2.0 mg/kg/injection, schedule: Q01DX009 (ip), vehicle: saline) 109 % of control and 111 % of control.
For `Nc1nc2c(c(=O)[nH]1)N(C=O)C(CNc1ccc(C(=O)N[C@@H](CCC(=O)O)C(=O)O)cc1)CN2` (stereo partly drawn), the T/C runs as follows: under setting [6], 96 % of control and 106 % of control; (endpoint: median survival time, dose: 256.0 mg/kg/injection, schedule: Q01DX005 (ip), vehicle: saline) 95 % of control and 108 % of control; (endpoint: median survival time, dose: 512.0 mg/kg/injection, schedule: Q01DX005 (ip), vehicle: saline) 92 % of control and 96 % of control.
With `O=[N+]([O-])O.[Ga]`, the T/C under setting [4] is 101 % of control; the T/C under setting [5] is 103 % of control and 107 % of control; the T/C under setting [6] is 102 % of control.
Take `c1ccc([C@H]2CN3CCSC3=N2)cc1`: the T/C by setting is: (endpoint: median survival time, dose: 5.0 mg/kg/injection, schedule: Q01DX009 (ip), vehicle: saline) 100 % of control and 101 % of control and 103 % of control; (endpoint: median survival time, dose: 10.0 mg/kg/injection, schedule: Q01DX005 (ip), vehicle: saline) 101 % of control; (endpoint: median survival time, dose: 10.0 mg/kg/injection, schedule: Q01DX009 (ip), vehicle: saline) 124 % of control and 100 % of control and 102 % of control; (endpoint: median survival time, dose: 20.0 mg/kg/injection, schedule: Q01DX005 (ip), vehicle: saline) 98 % of control and 116 % of control; (endpoint: median survival time, dose: 20.0 mg/kg/injection, schedule: Q01DX009 (ip), vehicle: saline) 97 % of control (2×) and 104 % of control; (endpoint: median survival time, dose: 40.0 mg/kg/injection, schedule: Q01DX005 (ip), vehicle: saline) 98 % of control and 113 % of control.
With `O=C1C(NCCO)=C(N2CC2)C(=O)C(NCCO)=C1N1CC1`, the T/C is 111 % of control (endpoint: mean survival time, dose: 0.37 mg/kg/injection, schedule: Q01DX009 (ip), vehicle: saline); 119 % of control and 122 % of control (endpoint: mean survival time, dose: 1.5 mg/kg/injection, schedule: Q01DX009 (ip), vehicle: saline).
Regarding `N[C@H](C(=O)O)[C@H]1ON=C(Cl)[C@@H]1O`, the T/C reads like this: (endpoint: mean survival time, dose: 256.0 mg/kg/injection, schedule: Q01DX009 (ip), vehicle: saline) 118 % of control; (endpoint: mean survival time, dose: 512.0 mg/kg/injection, schedule: Q01DX009 (ip), vehicle: saline) 98 % of control; (endpoint: mean survival time, dose: 1024.0 mg/kg/injection, schedule: Q01DX009 (ip), vehicle: saline) 98 % of control.
As to `CN(Cc1cnc2nc(N[Si](C)(C)C)nc(N[Si](C)(C)C)c2n1)c1ccc(C(=O)NC(CCC(=O)O[Si](C)(C)C)C(=O)O[Si](C)(C)C)cc1` (stereo not drawn), the T/C reads like this: (endpoint: median survival time, dose: 1.9 mg/kg/injection, schedule: Q04DX003 (ip), vehicle: saline) 107 % of control; (endpoint: median survival time, dose: 3.8 mg/kg/injection, schedule: Q04DX003 (ip), vehicle: saline) 121 % of control; (endpoint: median survival time, dose: 30.0 mg/kg/injection, schedule: Q04DX003 (ip), vehicle: saline) 150 % of control; (endpoint: median survival time, dose: 60.0 mg/kg/injection, schedule: Q04DX003 (ip), vehicle: saline) 157 % of control.
